# Source: patent US7981912B2, “Indole acetic acids exhibiting CRTH2 receptor antagonism and uses thereof” (Wyeth LLC, priority 2004, dated 2011)
# Molecular target: T1, human CRTH2 (Homo sapiens, UniProt Q9Y5Y4)
# T1 sequence (Q9Y5Y4 1-395): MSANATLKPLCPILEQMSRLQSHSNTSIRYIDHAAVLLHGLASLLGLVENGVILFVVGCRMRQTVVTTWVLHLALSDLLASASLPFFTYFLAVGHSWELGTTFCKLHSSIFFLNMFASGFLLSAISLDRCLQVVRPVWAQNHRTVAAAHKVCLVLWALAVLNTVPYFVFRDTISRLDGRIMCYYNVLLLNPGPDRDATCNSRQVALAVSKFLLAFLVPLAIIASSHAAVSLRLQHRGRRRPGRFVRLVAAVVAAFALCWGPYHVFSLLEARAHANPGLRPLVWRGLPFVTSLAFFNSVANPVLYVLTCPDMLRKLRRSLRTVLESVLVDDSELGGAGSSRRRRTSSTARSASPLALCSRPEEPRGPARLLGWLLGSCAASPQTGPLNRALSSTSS
# Assay: CRTH-2 binding assay (scintillation proximity assay, inhibition of 3H-PGD2 binding)
# Design: expressed in transfected cells; host or cells: HEK 293EBNA-hCRTH2 (membrane preparation)
# Details: inhibition of 3H-PGD2 (3.6 nM) binding to HEK 293EBNA-hCRTH2 membranes; Ki calculated from IC50
# Procedure: A CRTH2 binding assay was developed to measure the ability of compounds to inhibit the binding of PGD2 to human CRTH2 using a scintillation proximity assay.
# Membranes containing hCRTH2 receptors were prepared from HEK 293EBNA-hCRTH2 cells (a HEK 293EBNA cell line stably expressing human CRTH2). The cells were grown to confluency, harvested and washed with PBS. The cells were resuspended in 10 mM Hepes pH 7.4, 1 mM EDTA and protease inhibitors and incubated for 30 min on ice. The cells were homogenized and centrifuged for 10 min at 1000×g. The supernate was centrifuged for 30 min at 100,000×g and the membrane pellet was then resusupended in 10 mM Hepes pH 7.4 and 1 mM EDTA. The protein concentration of the membrane preparation was determined by Bradford assay (Bio-Rad).
# The ability of compounds to inhibit the interaction of PGD2 to human CRTH2 was determined at seven compound concentrations. Compounds were serially diluted in DMSO then diluted into CRTH2 buffer without glycerol (10 mM Hepes pH 7.4, 1 mM EDTA, 10 mM MnCl2) to six times the final desired concentration. 20 μL of the diluted compounds were transferred into non-surface binding 96 well plates (Corning). Each concentration was done in triplicate. In addition to test compounds, each plate contained 12 control wells. Six of these wells contained 20 μL of CRTH2 buffer without glycerol. These wells were used to measure total binding. Six wells contained 20 μL of CRTH2 buffer without glycerol plus 1.5 mM indomethacin. These wells were used to measure non-specific binding. Next, HEK 293EBNA-hCRTH2 membranes were resuspended in CRTH2 buffer with glycerol (10 mM Hepes pH 7.4, 1 mM EDTA, 10 mM MnCl2, 25% glycerol) so that the final concentration was approximately 20 μg protein/100 μL. Polylysine coated yttrium silicate SPA beads (Amershamn) were added to the membrane mix to a concentration of 0.4 mg/100 μL and finally ^3H-PGD2 was added to the membrane/SPA bead mix to 3.6 nM. 100 μL of the membrane/SPA bead/^3H-PGD2 mix was added to each well of the non-surface binding plates containing the diluted compound plus controls. The plates were incubated for 2 hours at room temperature with shaking and then the plates were counted on a Microbeta scintillation counter (Perkin Elmer) for 1 min per well.
# IC50 values were determined from the experimental results by nonlinear regression using Prism 4.0 software. The IC50 values were then used in conjunction with the […] for hCRTH2 and the ^3H-PGD2 concentration used in the experiment to calculate the Ki for each compound.
row,SMILES,Ki [µM]
1,"COc1ccc2c(c1)c(C1c3ccccc3S(=O)(=O)N1CCc1ccccc1)cn2CC(=O)O (stereo not shown) [Example 55, [3-(1,1-Dioxo-2-phenethyl-2,3-dihydro-1H-1λ^6-benzo[d]isothiazol-3-yl)-5-methoxy-indol-1-yl]-acetic acid]",< 10
2,"COc1ccc2c(c1)c(C1c3ccccc3S(=O)(=O)N1C(C)Cc1ccccc1)cn2CC(=O)O (stereo not shown) [Example 56, {5-Methoxy-3-[2-(1-methyl-2-phenyl-ethyl)-1,1-dioxo-2,3-dihydro-1H-1λ^6-benzo[d]isothiazol-3-yl]-indol-1-yl}-acetic acid]",< 10
3,"COc1ccc2c(c1)c(C1c3ccccc3S(=O)(=O)N1Cc1ccc(C#N)cc1)cn2CC(=O)O (stereo not shown) [Example 57, {3-[2-(4-Cyano-benzyl)-1,1-dioxo-2,3-dihydro-1H-1λ^6-benzo[d]isothiazol-3-yl]-5-methoxy-indol-1-yl}-acetic acid]",< 10
4,"C=CCN1C(c2c(C)n(CC(=O)O)c3ccc(Cl)cc23)c2ccccc2S1(=O)=O (stereo not shown) [Example 58, [3-(2-Allyl-1,1-dioxo-2,3-dihydro-1H-1λ^6-benzo[d]isothiazol-3-yl)-5-chloro-2-methyl-indol-1-yl]-acetic acid]",< 1
5,"CCOC(=O)CN1C(c2c(C)n(CC(=O)O)c3ccc(Cl)cc23)c2ccccc2S1(=O)=O (stereo not shown) [Example 59, [5-Chloro-3-(2-ethoxycarbonylmethyl-1,1-dioxo-2,3-dihydro-1H-1 λ^6-benzo[d]isothiazol-3-yl)-2-methyl-indol-1-yl]-acetic acid]",< 0.1
6,"Cc1noc(C)c1CN1C(C)(c2c(C)n(CC(=O)O)c3ccccc23)c2ccccc2S1(=O)=O (stereo not shown) [Example 65, {3-[2-(3,5-Dimethyl-isoxazol-4-ylmethyl)-3-methyl-1,1-dioxo-2,3-dihydro-1H-1λ^6-benzo[d]isothiazol-3-yl]-2-methyl-indol-1-yl}-acetic acid]",< 0.1
7,"Cc1c(C2(C)c3ccccc3S(=O)(=O)N2CCOc2ccccc2)c2ccccc2n1CC(=O)O (stereo not shown) [Example 67, {2-Methyl-3-[3-methyl-1,1-dioxo-2-(2-phenoxy-ethyl)-2,3-dihydro-1H-1-benzo[d]isothiazol-3-yl]-indol-1-yl}-acetic acid]",< 1
8,"Cc1noc(C)c1CN1C(=O)c2ccccc2C1c1c(C)n(CC(=O)O)c2ccccc12 (stereo not shown) [Example 68, {3-[2-(3,5-Dimethyl-isoxazol-4-ylmethyl)-3-oxo-2,3-dihydro-1H-isoindol-1-yl]-2-methyl-indol-1-yl}-acetic acid]",< 1
9,"Cc1noc(C)c1CN1C(c2c(C)n(CC(=O)O)c3ccccc23)CCS1(=O)=O (stereo not shown) [Example 69, {3-[2-(3,5-Dimethyl-isoxazol-4-ylmethyl)-1,1-dioxo-λ^6-isothiazolidin-3-yl]-2-methyl-indol-1-yl}-acetic acid]",< 0.1
10,"Cc1c(C2=NN(Cc3ccccc3)C(=O)C3CC=CCC23)c2ccccc2n1CC(=O)O (stereo not shown) [Example 71, [3-(3-Benzyl-4-oxo-3,4,4a,5,8,8a-hexahydro-phthalazin-1-yl)-2-methyl-indol-1-yl]-acetic acid]",< 1
11,"Cc1c(C2c3ccccc3S(=O)(=O)N2c2ccccc2)c2ccccc2n1CC(=O)O (stereo not shown) [Example 74, [3-(1,1-Dioxo-2-phenyl-2,3-dihydro-1H-1λ^6-benzo[d]isothiazol-3-yl)-2-methyl-indol-1-yl]-acetic acid]",< 1

# Results, then the compound that gave them:
row,Ki [µM],SMILES
1,< 1,"COc1ccc2c(c1)c(C1c3ccccc3S(=O)(=O)N1Cc1ccc(F)cc1)cn2CC(=O)O (stereo not shown) [Example 54, {3-[2-(4-Fluoro-benzyl)-1,1-dioxo-2,3-dihydro-1H-1λ^6-benzo[d]isothiazol-3-yl]-5-methoxy-indol-1-yl}-acetic acid]"
2,< 1,"Cc1c(C2c3ccccc3S(=O)(=O)N2Cc2ccc(F)cc2)c2cc(Cl)ccc2n1CC(=O)O (stereo not shown) [Example 60, {5-Chloro-3-[2-(4-fluoro-benzyl)-1,1-dioxo-2,3-dihydro-1H-1λ^6-benzo[d]isothiazol-3-yl]-2-methyl-indol-1-yl}-acetic acid]"
3,< 1,"Cc1c(C2c3ccc(F)cc3S(=O)(=O)N2Cc2cccc(F)c2)c2ccccc2n1CC(=O)O (stereo not shown) [Example 63, {3-[6-Fluoro-2-(3-fluoro-benzyl)-1,1-dioxo-2,3-dihydro-1H-1λ^6benzo[d]isothiazol-3-yl]-2-methyl-indol-1-yl}-acetic acid]"
4,< 0.1,"Cc1c(C2c3ccc(F)cc3S(=O)(=O)N2CCc2ccccc2)c2ccccc2n1CC(=O)O (stereo not shown) [Example 64, [3-(6-Fluoro-1,1-dioxo-2-phenethyl-2,3-dihydro-1H-1λ^6-benzo[d]isothiazol-3-yl)-2-methyl-indol-1-yl]-acetic acid]"
5,< 1,"Cc1c(C2(C)c3ccccc3S(=O)(=O)N2Cc2cccc(F)c2)c2ccccc2n1CC(=O)O (stereo not shown) [Example 66, {3-[2-(3-Fluoro-benzyl)-3-methyl-1,1-dioxo-2,3-dihydro-1H-1λ^6-benzo[d]isothiazol-3-yl]-2-methyl-indol-1-yl}-acetic acid]"
6,< 0.1,"Cc1c(C2=NN(Cc3ccccc3)C(=O)C(C)(C)C2)c2cc(Cl)ccc2n1CC(=O)O [Example 73, [3-(1-Benzyl-5,5-dimethyl-6-oxo-1,4,5,6-tetrahydro-pyridazin-3-yl)-5-chloro-2-methyl-indol-1-yl]-acetic acid]"
7,< 1,"Cc1c(C2=NN(Cc3ccccc3)S(=O)(=O)c3ccccc32)c2cc(F)ccc2n1CC(=O)O [Example 75, [3-(2-Benzyl-1,1-dioxo-1,2-dihydro-1λ^6-benzo[e][1,2,3]thiadiazin-4-yl)-5-fluoro-2-methyl-indol-1-yl]-acetic acid]"
8,< 0.1,"Cc1c(C2=NN(Cc3ccccc3Cl)S(=O)(=O)c3ccccc32)c2cc(F)ccc2n1CC(=O)O [Example 76, {3-[2-(2-Chloro-benzyl)-1,1-dioxo-1,2-dihydro-1λ^6-benzo[e][1,2,3]thiadiazin-4-yl]-5-fluoro-2-methyl-indol-1-yl}-acetic acid]"
9,< 1,"Cc1c(C2=NN(Cc3cccc(Cl)c3)S(=O)(=O)c3ccccc32)c2cc(F)ccc2n1CC(=O)O [Example 77, {3-[2-(3-Chloro-benzyl)-1,1-dioxo-1,2-dihydro-1λ^6-benzo[e][1,2,3]thiadiazrn-4-yl]-5-fluoro-2-methyl-indol-1-yl}-acetic acid]"
10,< 1,"Cc1c(C2=NN(Cc3ccc(Cl)cc3)S(=O)(=O)c3ccccc32)c2cc(F)ccc2n1CC(=O)O [Example 78, {3-[2-(4-Chloro-benzyl)-1,1-dioxo-1,2-dihydro-1λ^6-benzo[e][1,2,3]thiadiazin-4-yl]-5-fluoro-2-methyl-indol-1-yl}-acetic acid]"
11,< 1,"COc1cccc(CN2N=C(c3c(C)n(CC(=O)O)c4ccc(F)cc34)c3ccccc3S2(=O)=O)c1 [Example 79, {3-[2-(3-Methoxy-benzyl)-1,1-dioxo-1,2-dihydro-1λ^6-benzo[e][1,2,3]thiadiazin-4-yl]-5-fluoro-2-methyl-indol-1-yl}-acetic acid]"
12,< 0.1,"COc1ccc(CN2N=C(c3c(C)n(CC(=O)O)c4ccc(F)cc34)c3ccccc3S2(=O)=O)cc1 [Example 80, {3-[2-(4-Methoxy-benzyl)-1,1-dioxo-1,2-dihydro-1λ^6-benzo[e][1,2,3]thiadiazin-4-yl]-5-fluoro-2-methyl-indol-1-yl}-acetic acid]"
13,< 0.1,"Cc1c(C2=NN(Cc3ccccc3F)S(=O)(=O)c3ccccc32)c2cc(F)ccc2n1CC(=O)O [Example 81, {3-[2-(2-Fluoro-benzyl)-1,1-dioxo-1,2-dihydro-1λ^6-benzo[e][1,2,3]thiadiazin-4-yl]-5-fluoro-2-methyl-indol-1-yl}-acetic acid]"
14,< 0.1,"Cc1c(C2=NN(Cc3cccc(F)c3)S(=O)(=O)c3ccccc32)c2cc(F)ccc2n1CC(=O)O [Example 82, {3-[2-(3-Fluoro-benzyl)-1,1-dioxo-1,2-dihydro-1λ^6-benzo[e][1,2,3]thiadiazin-4-yl]-5-fluoro-2-methyl-indol-1-yl}-acetic acid]"
